The assay concerns H1 human embryonic stem cells. As to the kind of experiment: Analogue screening in combination with only GDF-8, SOX17 (Example 21, Tables 18 and 19). To be noted: for Sox17 Expression, % of positive control: 2.5 μM compound with 200 ng/ml GDF-8, four days, Table 19 hits; for Cell Number: Average Total Cell Number / Sox17 Expression: Average Total Intensity / Cell Number: % of positive control / Sox17 Expression: % of positive control: compound in combination with GDF8; for Cell Number: Average Total Cell Number / Sox17 Expression: Average Total Intensity: four assay plates; for Cell Number: % of positive control / Sox17 Expression: % of positive control: relative to Activin A/Wnt3a of the same plate. Further details: Sox17 Expression: % of positive control / Cell Number: % of positive control: tested at 2.5 µM. The format is cell-based. Put shortly: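 H1 human ES cells treated four days with 200 ng/ml GDF-8 plus 2.5 μM compound (day 1, 0.5% FCS), GDF-8 alone in 2% FCS on day 3; triplicates. Fixed cells immunostained for SOX17 with Hoechst counterstain, imaged at 15 fields/well; total SOX17 intensity normalized to activin A/Wnt3a positive control.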

As to `CN1CCC(=O)NCCCc2cncc(c2)-c2ncnc(n2)Nc2cccc(c2)C1` [Compound 19, 14-Methyl-3,5,7,14,18,24,28-heptaazatetracyclo[20.3.1.1˜2,6˜0.1˜8,12˜]octacosa-1(26), 2(28), 3,5,8(27), 9,11,22,24-nonaen-17-one], the “Sox17 Expression, % of positive control” value is recorded as 69.5 % of positive control; the “Cell Number: Average Total Cell Number” value is listed as 12569; the “Sox17 Expression: Average Total Intensity” value stood at 2.40E+08; the “Cell Number: % of positive control” value was 83.8%. In addition, the “Sox17 Expression: % of positive control” value stood at 69.5%.
As for `CN1CCC(=O)NCCCNc2cccc(c2)-c2ncnc(n2)Nc2cccc(c2)C1` [Compound 21, 14-Methyl-3,5,7,14,18,22,29-heptaazatetracyclo[21.3.1.1˜2,6˜0.1˜8,12˜]nonacosa-1(27), 2(29), 3,5,8(28), 9,11,23,25-nonaen-17-one], the “Cell Number: Average Total Cell Number” value was determined as 371, the “Sox17 Expression: Average Total Intensity” value was 2.36E+06, the “Cell Number: % of positive control” value amounted to 2.3% and the “Sox17 Expression: % of positive control” value is recorded as 0.7%.
Consider `O=C1CCN2CCN(CC2)Cc2cccc(c2)Nc2ncnc(n2)-c2cncc(c2)CCCN1` [Compound 23, 1,8,10,12,16,22,26,32-Octaazapentacyclo[24.2.2.1-3,7˜0.1˜9,13˜0.1˜14,18˜]tritriaconta-3(33), 4,6,9(32), 10,12,14(31), 15,17-nonaen-23-one], for which the “Sox17 Expression, % of positive control” value is listed as 29.8 % of positive control; the “Cell Number: Average Total Cell Number” value is 8758; the “Sox17 Expression: Average Total Intensity” value is given as 1.16E+08; the “Cell Number: % of positive control” value worked out at 58.4%. The “Sox17 Expression: % of positive control” value worked out at 33.7%.
For `C=CCN1CC(=O)NCCCc2cncc(c2)-c2ncnc(n2)Nc2cccc(c2)C1` [Compound 40, 14-Prop-2-en-1-yl-3,5,7,14,17,23,27-heptaazatetracyclo[19.3.1.1˜2.6˜0.1˜8,12˜]heptacosa-1(25), 2(27), 3,5,8(26), 9,11,21,23-nonaen-16-one], the “Sox17 Expression, % of positive control” value is 52.2 % of positive control.
Still for that read-out and setting: for `O=C1CCN2CCN(CC2)Cc2cc(Cl)cc(c2)Nc2ncnc(n2)-c2cncc(c2)CCCN1` [Compound 34, 5-Chloro-1,8,10,12,16,22,26,32-octaazapentacyclo[24.2.2.1˜3.7˜0.1˜9,13˜0.1˜14.18˜]tritriaconta-3(33), 4,6,9(32), 10,12,14(31), 15,17-nonaen-23-one] the value was 68.0 % of positive control; for `O=C1NCCCc2cncc(c2)-c2ncnc(n2)Nc2cccc(c2)CN2CCCC1C2` (stereo not shown) [Compound 17, 3,5,7,14,20,26,31-Heptaazapentacyclo[22.3.1.1-2,6˜1˜8,12˜1˜14,18˜]hentriaconta-1(28), 2(31), 3,5,8(30), 9,11,24,26-nonaen-19-one], 23.6 % of positive control.
For `CCN1CC(=O)NCCCc2cc(ccc2F)-c2ncnc(n2)Nc2cc(Cl)cc(c2)C1` [Compound 25, 10-Chloro-14-ethyl-22-fluoro-3,5,7,14,17,27-hexaazatetracyclo[19.3.1.1˜2,6˜0.1˜8,12˜]heptacosa-1(25), 2(27), 3,5,8(26), 9,11,21,23-nonaen-16-one], the “Cell Number: Average Total Cell Number” value worked out at 3879, the “Sox17 Expression: Average Total Intensity” value amounted to 1.76E+07, the “Cell Number: % of positive control” value was 24.4% and the “Sox17 Expression: % of positive control” value came to 5.0%.
In the case of `O=C1CCN2CCN(CC2)Cc2cccc(c2)Nc2ncnc(n2)-c2ccnc(c2)NCCCN1` [Compound 13, 1,8,10,12,17,19,23,27,33-Nonaazapentacyclo[25.2.2.1˜3,7˜0.1˜9.13˜1˜14.18˜]tetratriaconta-3(34), 4,6,9(33), 10,12,14(32), 15,17-nonaen-24-one], the “Cell Number: Average Total Cell Number” value is given as 3123, the “Sox17 Expression: Average Total Intensity” value amounted to 2.44E+07, the “Cell Number: % of positive control” value is listed as 20.8% and the “Sox17 Expression: % of positive control” value was found to be 7.1%.
For `O=C1NCCCc2cncc(c2)-c2ncnc(n2)Nc2cc(Cl)cc(c2)CN2CCCC1C2` (stereo not shown) [Compound 37, 10-Chloro-3,5,7,14,20,26,31-heptaazapentacyclo[22.3.1.1˜2,6˜0.1˜8,12˜0.1˜14,18˜]hentriaconta-1(28), 2(31), 3,5,8(30), 9,11,24,26-nonaen-19-one], in that order: 4187, 3.11E+07, 26.4% and 8.8%.
For the molecule `CCN1CC(=O)NCCCc2cccc(c2)-c2ncnc(n2)Nc2cccc(c2)C1` [Compound 15, 14-Ethyl-3,5,7,14,17,27-hexaazatetracyclo[19.3.1.1˜2,6˜1-8.12˜]heptacosa-1(25), 2(27), 3,5,8(26), 9,11,21,23-nonaen-16-one], the “Cell Number: Average Total Cell Number” value is given as 4383, the “Sox17 Expression: Average Total Intensity” value was determined as 3.57E+07, the “Cell Number: % of positive control” value is on record as 28.7% and the “Sox17 Expression: % of positive control” value came out at 10.6%.
Regarding `CN1CCCC(=O)NCCCc2cncc(c2)-c2ncnc(n2)Nc2cccc(c2)C1` [Compound 20, 14-Methyl-3,5,7,14,19,25,29-heptaazatetracyclo[21.3.1.1˜2,6˜0.1˜8,12˜]nonacosa-1(27), 2(29), 3,5,8(28), 9,11,23,25-nonaen-18-one], the “Cell Number: Average Total Cell Number” value worked out at 2793, the “Sox17 Expression: Average Total Intensity” value came out at 6.77E+06, the “Cell Number: % of positive control” value was found to be 17.6% and the “Sox17 Expression: % of positive control” value worked out at 1.9%.
For `CCN1CC(=O)NCCCc2cc(ccn2)-c2ncnc(n2)Nc2cc(Cl)cc(c2)C1` [Compound 14, 10-Chloro-14-ethyl-3,5,7,14,17,22,27-heptaazatetracyclo[19.3.1.1˜2,6˜1˜8,12˜]heptacosa-1(25), 2(27), 3,5,8(26), 9,11,21,23-nonaen-16-one], in that order: 274, 1.56E+05, 2.0% and 0.1%.
Turning to `CCN1CC(=O)NCCCc2cncc(c2)-c2ncnc(n2)Nc2cc(Cl)cc(c2)C1` [Compound 35, 10-Chloro-14-ethyl-3,5,7,14,17,23,27-heptaazatetracyclo[19.3.1.1˜2,6˜0.1˜8,12]Theptacosa-1(25), 2(27), 3,5,8(26), 9,11,21,23-nonaen-16-one], the “Sox17 Expression, % of positive control” value is on record as 33.7 % of positive control; the “Cell Number: Average Total Cell Number” value was 7746; the “Sox17 Expression: Average Total Intensity” value amounted to 1.35E+08; the “Cell Number: % of positive control” value was 48.8%. For the same molecule, the “Sox17 Expression: % of positive control” value is listed as 38.0%.
Turning to `O=C1NCCCc2cncc(c2)-c2ncnc(n2)Nc2cccc(c2)CN2CCC[C@@H]12` [Compound 18, (18S)-3,5,7,14,20,26,30-Heptaazapentacyclo[22.3.1.1˜2,6˜1˜8,12˜0.0˜14,18˜]triaconta-1(28), 2(30), 3,5,8(29), 9,11,24,26-nonaen-19-one], the “Cell Number: Average Total Cell Number” value stood at 1921, the “Sox17 Expression: Average Total Intensity” value was 2.94E+07, the “Cell Number: % of positive control” value is recorded as 13.8% and the “Sox17 Expression: % of positive control” value turned out to be 9.5%.
With `O=C1NCCCc2cncc(c2)-c2ncnc(n2)Nc2cccc(c2)CN2CCC1CC2` [Compound 22, 1,8,10,12,16,22,30-Heptaazapentacyclo[22.2.2.1-3,7˜0.1˜9,13˜1-14,18˜]hentriaconta-3(31), 4,6,9(30), 10,12,14(29), 15,17-nonaen-23-one], the “Sox17 Expression, % of positive control” value was 27.4 % of positive control; the “Cell Number: Average Total Cell Number” value turned out to be 6727; the “Sox17 Expression: Average Total Intensity” value was found to be 1.06E+08; the “Cell Number: % of positive control” value was found to be 42.4%. Besides, the “Sox17 Expression: % of positive control” value is reported as 29.8%.
